Measurements: patent US20230203004A1, “RSV INHIBITING 3-SUBSTITUTED QUINOLINE AND CINNOLINE DERIVATIVES” (Janssen Sciences Ireland Unlimited Company, priority 2020, published 2023)
Like-named read-outs stand apart in the source and are kept apart here.

Key:
[1] = system: rgRSV224 virus; test: Antiviral activity: rgRSV224 (GFP) replication in HeLa cells; assay type: cell-based, respiratory syncytial virus (RSV); conditions: human respiratory syncytial virus, HeLa
Method in brief: (§1)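 Over 3 days at 37 °C, compound titrations (4-fold steps, nine dilutions) were tested on HeLa cells infected with rgRSV224 (MOI = 1), inhibition of GFP signal giving EC50. In parallel plates, ATP content of HeLa cells after 3-day exposure defined CC50.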

[2] = Cytotoxicity in HeLa cells (ATP content, ATPlite kit); assay type: cell-based; conditions: human
Method in brief: as §1

[3] = 72 h, read-out: RSV HELA EC50, HeLa cells, rgRSV224 MOI = 1, GFP expression three days post-virus exposure, averaged data of several repeat experiments

COc1cc(C(=O)NC[C@@](O)(c2cc(C(C)(C)O)cc(-c3ccc(F)cc3)n2)C2CC2)cc2cc(C)nnc12 [compound 305]
EC50 [1, 3]: 0.642 µM
CC50 at 3 days ([2]; TOX HELA CC50): 41 µM

COc1cc(C(=O)NC[C@](O)(c2cc(C(C)(C)O)cc(-c3ccc(F)cc3)n2)C(C)(C)F)cc2cc(C)nnc12 [compound 306]
EC50 [1, 3]: 0.001 µM
CC50 at 3 days ([2]; TOX HELA CC50): 50 µM

COc1cc(C(=O)NC[C@@](O)(c2cc(C(C)(C)O)cc(-c3ccc(F)cc3)n2)C(C)(C)F)cc2cc(C)nnc12 [compound 307]
EC50 [1, 3]: 0.04 µM
CC50 at 3 days ([2]; TOX HELA CC50): 43 µM

Cc1cc2cc(C(=O)NC[C@](O)(c3cc(C(C)(C)O)c(F)c(-c4ccc(F)cc4)n3)C(F)F)cc(OC3CC3)c2nn1 [compound 308, (-)Cyclopropoxy-N-(3,3-Difluoro-2-(5-Fluoro-6-(4-Fluorophenyl)-4-(2-Hydroxypropan-2-yl)Pyridin-2-yl)-2-Hydroxypropyl)-3-Methylcinnoline-6-Carboxamide]
EC50 [1, 3]: 0.0023 µM
CC50 at 3 days ([2]; TOX HELA CC50): 38 µM

COc1cc(C(=O)NC[C@](O)(c2cc(C(C)(C)O)cc(-c3ccc(F)cc3)n2)C(C)(F)F)cc2cc(C)nnc12 [compound 309, (-)-N-(3,3-difluoro-2-(6-(4-fluorophenyl)-4-(2-hydroxypropan-2-yl)pyridin-2-yl)-2-hydroxybutyl)-8-methoxy-3-methylcinnoline-6-carboxamide]
EC50 [1, 3]: 0.011 µM
CC50 at 3 days ([2]; TOX HELA CC50): 34 µM

COc1cc(C(=O)NC[C@@](O)(c2cc(C(C)(C)O)cc(-c3ccc(F)cc3)n2)C(C)(F)F)cc2cc(C)nnc12 [compound 310, (+)-N-(3,3-difluoro-2-(6-(4-fluorophenyl)-4-(2-hydroxypropan-2-yl)pyridin-2-yl)-2-hydroxybutyl)-8-methoxy-3-methylcinnoline-6-carboxamide]
EC50 [1, 3]: > 1.25 µM
CC50 at 3 days ([2]; TOX HELA CC50): 55 µM

[2H]C([2H])([2H])c1cc2cc(C(=O)NC[C@](O)(c3cc(C(C)(C)O)c(F)c(-c4ccc(F)cc4)n3)C(F)(F)F)cc(OC)c2nn1 [compound 311, (-)Methoxy-3-(Methyl-d3)-N-(3,3,3-Trifluoro-2-(5-Fluoro-6-(4-Fluorophenyl)-4-(2-Hydroxypropan-2-yl)Pyridin-2-yl)-2-Hydroxypropyl)Cinnoline-6-Carboxamide]
EC50 [1, 3]: 0.0013 µM
CC50 at 3 days ([2]; TOX HELA CC50): 42 µM

Cc1cc2cc(C(=O)NC[C@](O)(c3cc(C(C)(C)O)c(F)c(-c4ccc(F)cc4)n3)C(F)(F)F)cc(OC(F)F)c2nn1 [compound 312, (-)(Difluoromethoxy)-3-Methyl-N-(3.3.3-Trifluoro-2-(5-Fluoro-6-(4-Fluorophenyl)-4-(2-Hydroxypropan-2-yl)Pyridin-2-yl)-2-Hydroxypropyl)Cinnoline-6-Carboxamide]
EC50 [1, 3]: 0.0028 µM
CC50 at 3 days ([2]; TOX HELA CC50): 13 µM

COc1cc(C(=O)NC[C@](O)(c2cc(C(C)(C)O)c(F)c(-c3ccc(F)cc3)n2)C(C)(F)F)cc2cc(C)nnc12 [compound 313, (-)-N-(3,3-difluoro-2-(5-fluoro-6-(4-fluorophenyl)-4-(2-hydroxypropan-2-yl)pyridin-2-yl)-2-hydroxybutyl)-8-methoxy-3-methylcinnoline-6-carboxamide]
EC50 [1, 3]: 0.001 µM
CC50 at 3 days ([2]; TOX HELA CC50): 42 µM

COc1cc(C(=O)NC[C@@](O)(c2cc(C(C)(C)O)c(F)c(-c3ccc(F)cc3)n2)C(C)(F)F)cc2cc(C)nnc12 [compound 314, (+)-N-(3,3-difluoro-2-(5-fluoro-6-(4-fluorophenyl)-4-(2-hydroxypropan-2-yl)pyridin-2-yl)-2-hydroxybutyl)-8-methoxy-3-methylcinnoline-6-carboxamide]
EC50 [1, 3]: 0.168 µM
CC50 at 3 days ([2]; TOX HELA CC50): 35 µM

[2H]C([2H])(NC(=O)c1cc(OC)c2nnc(C)cc2c1)[C@@](O)(c1cc(C(C)(C)O)c(F)c(-c2ccc(F)cc2)n1)C1CC1 [compound 315]
EC50 [1, 3]: 0.047 µM
CC50 at 3 days ([2]; TOX HELA CC50): 27 µM

[2H]C([2H])(NC(=O)c1cc(OC)c2nnc(C)cc2c1)[C@](O)(c1cc(C(C)(C)O)c(F)c(-c2ccc(F)cc2)n1)C1CC1 [compound 316]
EC50 [1, 3]: 0.00034 µM
CC50 at 3 days ([2]; TOX HELA CC50): 33 µM

Cc1cc2cc(C(=O)NC[C@](O)(c3cc(C(C)(C)O)c(F)c(-c4ccc(F)cc4)n3)C(F)(F)F)cc(OC3CC3)c2nn1 [compound 318, (-)Cyclopropoxy-3-Methyl-N-(3.3.3-Trifluoro-2-(5-Fluoro-6-(4-Fluorophenyl)-4-(2-Hydroxypropan-2-yl)Pyridin-2-yl)-2-Hydroxypropyl)Cinnoline-6-Carboxamide]
EC50 [1, 3]: 0.0014 µM
CC50 at 3 days ([2]; TOX HELA CC50): 22 µM

COc1cc(C(=O)NC[C@](O)(c2cc(C(C)(C)O)c(F)c(-c3ccc(F)cc3)n2)C(F)(F)F)cc2cc(C3CC3)cnc12 [compound 321, (-)Cyclopropyl-8-Methoxy-N-(3,3,3-Trifluoro-2-(5-Fluoro-6-(4-Fluorophenyl)-4-(2-Hydroxypropan-2-yl)Pyridin-2-yl)-2-Hydroxypropyl)Quinoline-6-Carboxamide]
EC50 [1, 3]: 0.054 µM
CC50 at 3 days ([2]; TOX HELA CC50): 13 µM

COc1cc(C(=O)NC[C@](O)(c2cc(C(C)(C)O)c(F)c(-c3ccc(F)cc3)n2)C(F)(F)F)cc2cc(C)cnc12 [compound 322, (-)Methoxy-3-Methyl-N-(3,3,3-Trifluoro-2-(5-Fluoro-6-(4-Fluorophenyl)-4-(2-Hydroxypropan-2-yl)Pyridm-2-yl)-2-Hydroxypropyl)Qumolme-6-Carboxamide]
EC50 [1, 3]: 0.0045 µM
CC50 at 3 days ([2]; TOX HELA CC50): 15 µM

COc1cc(C(=O)NC[C@](O)(c2cc(C(C)(C)O)c(F)c(-c3ccc(F)cc3)n2)C(F)(F)F)cc2cc(CF)cnc12 [compound 324, (-)(Fluoromethyl)-8-Methoxy-N-(3,3,3-Trifluoro-2-(5-Fluoro-6-(4-Fluorophenyl)-4-(2-Hydroxypropan-2-yl)Pyridin-2-yl)-2-Hydroxypropyl)Quinoline-6-Carboxamide]
EC50 [1, 3]: 0.012 µM
CC50 at 3 days ([2]; TOX HELA CC50): 4 µM

COc1cc(C(=O)NC[C@](O)(c2cc(C(C)(C)O)c(F)c(-c3ccc(F)cc3)n2)C(F)(F)F)cc2cc(C(F)F)cnc12 [compound 325, (-)(Difluoromethyl)-8-Methoxy-N-(3,3,3-Trifluoro-2-(5-Fluoro-6-(4-Fluorophenyl)-4-(2-Hydroxypropan-2-yl)Pyridin-2-yl)-2-Hydroxypropyl)Quinoline-6-Carboxamide]
EC50 [1, 3]: 0.0036 µM
CC50 at 3 days ([2]; TOX HELA CC50): 13 µM

COc1cc(C(=O)NC[C@](O)(c2cc(C(C)(C)O)c(F)c(-c3ccc(F)cc3)n2)C(F)(F)F)cc2cc(C(F)(F)F)cnc12 [compound 326, (-)(Trifluoromethyl)-8-Methoxy-N-(3,3,3-Trifluoro-2-(5-Fluoro-6-(4-Fluorophenyl)-4-(2-Hydroxypropan-2-yl)Pyridin-2-yl)-2-Hydroxypropyl)Quinoline-6-Carboxamide]
EC50 [1, 3]: 0.026 µM
CC50 at 3 days ([2]; TOX HELA CC50): 13 µM

COc1cc(C(=O)NC[C@](O)(c2cc(C(C)(C)O)c(Cl)c(-c3ccc(F)cc3)n2)C(F)(F)F)cc2cc(C(F)F)cnc12 [compound 327, (-)(Difluoromethyl)-8-Methoxy-N-(3,3,3-Trifluoro-2-(5-Chloro-6-(4-Fluorophenyl)-4-(2-Hydroxypropan-2-yl)Pyridin-2-yl)-2-Hydroxypropyl)Quinoline-6-Carboxamide]
EC50 [1, 3]: 0.0095 µM
CC50 at 3 days ([2]; TOX HELA CC50): 15 µM

COc1cc(C(=O)NC[C@](O)(c2cc(C(C)(C)O)c(Cl)c(-c3ccc(F)cc3)n2)C(F)(F)F)cc2cc(C(F)(F)F)cnc12 [compound 328, (-)(Trifluoromethyl)-8-Methoxy-N-(3,3,3-Trifluoro-2-(5-Chloro-6-(4-Fluorophenyl)-4-(2-Hydroxypropan-2-yl)Pyridin-2-yl)-2-Hydroxypropyl)Quinoline-6-Carboxamide]
EC50 [1, 3]: 0.04 µM
CC50 at 3 days ([2]; TOX HELA CC50): 14 µM

COc1cc(C(=O)NC[C@](O)(c2cc(C(C)(C)O)c(F)c(-c3ccc(F)c(F)c3)n2)C(F)(F)F)cc2cc(C(F)F)cnc12 [compound 330, (-)(Difluoromethyl)-8-Methoxy-N-(3,3,3-Trifluoro-2-(5-Fluoro-6-(3,4-Difluorophenyl)-4-(2-Hydroxypropan-2-yl)Pyridin-2-yl)-2-Hydroxypropyl)Quinoline-6-Carboxamide]
EC50 [1, 3]: 0.01 µM
CC50 at 3 days ([2]; TOX HELA CC50): 13 µM

COc1cc(C(=O)NC[C@](O)(c2cc(C(C)(C)O)c(Cl)c(-c3ccc(F)cc3)n2)C2CC2)cc2cc(C(F)(F)F)cnc12 [compound 331]
EC50 [1, 3]: 0.0038 µM
CC50 at 3 days ([2]; TOX HELA CC50): 14 µM

COc1cc(C(=O)NC[C@](O)(c2cc(C(C)(C)O)c(F)c(-c3ccc(F)cc3)n2)C2CC2)cc2cc(C3CC3)cnc12 [compound 332, (-)Cyclopropyl-N-(2-Cyclopropyl-2-(5-Fluoro-6-(4-Fluorophenyl)-4-(2-Hydroxypropan-2-yl)Pyridin-2-yl)-2-Hydroxyethyl)-8-Methoxyquinoline-6-Carboxamide]
EC50 [1, 3]: 0.033 µM
CC50 at 3 days ([2]; TOX HELA CC50): 14 µM

COc1cc(C(=O)NC[C@@](O)(c2cc(C(C)(C)O)c(F)c(-c3ccc(F)cc3)n2)C(F)(F)F)cc2cc(C)nnc12 [compound 334, (+)Methoxy-3-Methyl-N-(3,3,3-Trifluoro-2-(5-Fluoro-6-(4-Fluorophenyl)-4-(2-Hydroxypropan-2-yl)Pyridin-2-yl)-2-Hydroxypropyl)Cinnoline-6-Carboxamide]
EC50 [1, 3]: 0.245 µM
CC50 at 3 days ([2]; TOX HELA CC50): 17 µM

COc1cc(C(=O)NCC(O)(c2cc(C(C)(C)N)c(F)c(-c3ccc(F)c(Cl)c3)n2)C(F)(F)F)cc2cccnc12 (centres unmarked) [reference compound]
EC50 ([1]; comparison table 5.3, antiviral RSV assay of Example 5.1): 0.053 µM
CC50 at 3 days ([2]; CC50): 13 µM
